The record followed here is US7381688B2, “Methylthiophene carboxanilides” (Bayer CropScience AG, priority 2002, dated 2008).

The structures appear in SMILES notation. Like-named read-outs stand apart in the source and are kept apart here.

One series deals with Venturia inaequalis. The series can be described thus: Venturia test (apple)/protective. In kind it is in vivo. The settings on record: 240 h, protective, evaluation 10 days after inoculation, read-out: Efficacy in %. The procedure: Venturia Test (Apple)/Protective
• Solvents: 24.5 parts by weight acetone • 24.5 parts by weight dimethylacetamide • Emulsifier: 1.0 part by weight alkylaryl polyglycol ether
To produce a suitable preparation of the active compound, 1 part by weight of active compound is mixed with the stated amounts of solvents and emulsifier, and the concentrate is diluted with water to the desired concentration.
To test for protective activity, young plants are sprayed with the preparation of active compound at the stated application rate. After the spray coating has dried on, the plants are inoculated with an aqueous Conidia suspension of the apple scab pathogen Venturia inaequalis and then remain in an incubation cabin at about 20° C. and 100% relative atmospheric humidity for 1 day.
The plants are then placed in a greenhouse at about 21° C. and a relative atmospheric humidity of about 90%.
(§1) Evaluation is carried out 10 days after the inoculation. 0% means an efficacy which corresponds to that of the control, whereas an efficacy of 100% means that no infection is observed.

The next series deals with Sphaerotheca fuliginea. The series can be described thus: Sphaerotheca test (cucumber)/protective. It counts as in vivo. Conditions: Podosphaera fuliginea, 168 h, protective, evaluation 7 days after inoculation, read-out: Efficacy in %. The protocol:
Sphaerotheca Test (Cucumber)/Protective
(§2) • Solvents: 24.5 parts by weight of acetone • 24.5 parts by weight dimethylacetamide • Emulsifier: 1.0 part by weight alkylaryl polyglycol ether
(§3) To produce a suitable preparation of active compound, 1 part by weight of active compound is mixed with the stated amounts of solvents and emulsifier, and the concentrate is diluted with water to the desired concentration.
To test for protective activity, young plants are sprayed with the preparation of active compound at the stated application rate. After the spray coating has dried on, the plants are inoculated with an aqueous spore suspension of Sphaerotheca fuliginea. The plants are then placed in a greenhouse at about 23° C. and a relative atmospheric humidity of about 70%.
(§4) Evaluation is carried out 7 days after the inoculation. 0% means an efficacy which corresponds to that of the control, whereas an efficacy of 100% means that no infection is observed.

A short description of series [1]: logP determination by HPLC (reverse-phase C 18), EEC Directive 79/831 Annex V.A8. In kind it is physicochemical. Conditions: reverse-phase C18 HPLC column, 43° C. The protocol:
The logP value given in the Preparation Examples and tables above are determined in accordance with EEC Directives 79/831 Annex V.A8 by HPLC (High Performance Liquid Chromatography) using a reverse-phase column (C 18). Temperature: 43° C.
The determination is carried out in the acidic range at pH 2.3 using the mobile phases 0.1% aqueous phosphoric acid and acetonitrile; linear gradient from 10% acetonitrile to 90% acetonitrile.
Calibration is carried out using unbranched alkan-2-ones (having 3 to 16 carbon atoms) with known logP values (determination of the logP values by the retention times using linear interpolation between two successive alkanones).

Another series concerns Podosphaera leucotricha. Put plainly: Podosphaera test (apple)/protective. It counts as in vivo. Conditions: 240 h, protective, evaluation 10 days after inoculation, read-out: Efficacy in %. The procedure: Podosphaera Test (Apple)/Protective
as §2, §3
To test for protective activity, young plants are sprayed with the preparation of active compound at the stated application rate. After the spray coating has dried on, the plants are inoculated with an aqueous spore suspension of the apple mildew pathogen Podosphaera leucotricha. The plants are then placed in a greenhouse at about 23° C. and a relative atmospheric humidity of about 70%.
as §1

In a further series the test system is Pyrenophora teres. The series can be described thus: Pyrenophora teres test (barley)/protective. In kind it is in vivo. Conditions: protective, 500 g/ha, evaluation 7 days after inoculation. The protocol: Pyrenophora teres Test (Barley)/Protective
• Solvent: 25 parts by weight N,N-dimethylacetamide • Emulsifier: 0.6 part by weight alkylaryl polyglycol ether
(§5) To produce a suitable preparation of active compound, 1 part by weight of active compound is mixed with the stated amounts of solvent and emulsifier, and the concentrate is diluted with water to the desired concentration.
To test for protective activity, young plants are sprayed with the preparation of active compound at the stated application rate. After the spray coating has dried on, the plants are sprayed with a conidia suspension of Pyrenophora teres. The plants remain in an incubation cabin at 20° C. and 100% relative atmospheric humidity for 48 hours.
The plants are then placed in a greenhouse at a temperature of about 20° C. and relative atmospheric humidity of about 80%.
as §4

The subject of another series is Alternaria solani. Put plainly: Alternaria test (tomato)/protective. In kind it is in vivo. The settings on record: protective, 750 g/ha, evaluation 7 days after inoculation. The protocol:
Alternaria Test (Tomato)/Protective
• Solvent: 49 parts by weight N,N-dimethylformamide • Emulsifier: 1 part by weight of alkylaryl polyglycol ether
as §5
To test for protective activity, young tomato plants are sprayed with the preparation of active compound at the stated application rate. 1 day after the treatment, the plants are inoculated with a spore suspension of Alternaria solani and then remain at 100% relative humidity and 20° C. for 24 h. The plants then remain at 96% relative atmospheric humidity and a temperature of 20° C.
as §4

[2] abbreviates: Table 1, acidic range at pH 2.3, HPLC, read-out: logP.
[3] abbreviates: pH 2.3, HPLC, read-out: logP (pH 2.3).

On to `Cc1ccsc1C(=O)Nc1ccccc1-c1ccc(OC(F)(F)F)c(F)c1` [Example 11], for which the pest or weed control at 100 g/ha in the series on Venturia inaequalis, in the series with Sphaerotheca fuliginea and with Podosphaera leucotricha was 100% each time. Moreover, in series [1] (setting [2]), the chromatographic logP came to 4.13.

Molecule `Cc1ccsc1C(=O)Nc1ccccc1-c1ccc(Cl)cc1F` [Example 13] yielded an Efficacy in % in the series on Pyrenophora teres of 94%. Moreover, the pest or weed control at 100 g/ha in the series with Venturia inaequalis, in the series on Sphaerotheca fuliginea and with Podosphaera leucotricha was 100% each time.

Take `Cc1ccsc1C(=O)Nc1ccccc1-c1ccc(F)c(F)c1` [Example 9]: the Efficacy in % in the series on Pyrenophora teres and with Alternaria solani was 100% each time. For the same molecule, the pest or weed control at 100 g/ha with Venturia inaequalis, in the series on Sphaerotheca fuliginea and in the series with Podosphaera leucotricha was 100% in each case. Moreover, the chromatographic logP in series [1] (setting [2]) is 3.55.

Consider `Cc1ccsc1C(=O)Nc1ccccc1-c1ccc(F)cc1` [Example 8], for which the Efficacy in % came out at 80% in the series on Pyrenophora teres and 100% in the series on Alternaria solani. Besides, the chromatographic logP in series [1] (setting [2]) turned out to be 3.65.

Take `Cc1ccsc1C(=O)Nc1ccccc1-c1ccc(Cl)cc1Cl` [Example 19]: the figures for the pest or weed control at 100 g/ha in the series on Venturia inaequalis, with Sphaerotheca fuliginea and in the series with Podosphaera leucotricha were 99%, 96% and 100%, respectively. The chromatographic logP in series [1] (setting [2]) was 5.76.

As to `Cc1ccsc1C(=O)Nc1ccccc1Br` [III-1, N-(2-bromophenyl)-3-methyl-2-thiophenecarboxamide], the chromatographic logP in series [1] (setting [3]) turned out to be 3.3.

For `Cc1ccsc1C(=O)Nc1ccccc1-c1ccc(Br)cc1` [Example 3], in series [1] (setting [2]), the chromatographic logP was found to be 4.12. In the series on Alternaria solani, this molecule registered an Efficacy in % of 100%.

Take `Cc1ccsc1C(=O)Nc1ccccc1-c1ccc(F)c(Cl)c1` [Example 1, N-(3′-chloro-4′-fluoro-1,1′-biphenyl-2-yl)-3-methyl-2-thiophenecarboxamide]: the pest or weed control at 100 g/ha with Venturia inaequalis, in the series on Sphaerotheca fuliginea and in the series with Podosphaera leucotricha was 100% in each case. In addition, in series [1] (setting [3]), the chromatographic logP was 3.85.

Turning to `Cc1ccsc1C(=O)Nc1ccccc1-c1cccc(Cl)c1` [Example 5], the results for the pest or weed control at 100 g/ha in the series on Venturia inaequalis, in the series on Sphaerotheca fuliginea and with Podosphaera leucotricha were 100%, 93% and 100%, respectively. Besides, in series [1] (setting [2]), the chromatographic logP came to 3.97. This molecule also showed an Efficacy in % in the series on Alternaria solani of 100%.

`Cc1ccsc1C(=O)Nc1ccccc1-c1cc(Cl)cc(Cl)c1` [Example 15]: the figures for the pest or weed control at 100 g/ha in the series on Venturia inaequalis, in the series on Sphaerotheca fuliginea and in the series on Podosphaera leucotricha were 97%, 100% and 100%, respectively. The chromatographic logP in series [1] (setting [2]) was determined as 4.32.

Consider `Cc1ccsc1C(=O)Nc1ccccc1-c1ccc(Cl)c(F)c1` [Example 10], for which the pest or weed control at 100 g/ha with Venturia inaequalis, in the series with Sphaerotheca fuliginea and with Podosphaera leucotricha was 100% in each case. The chromatographic logP in series [1] (setting [2]) came out at 3.85. Further, the Efficacy in % in the series with Alternaria solani was 100%.

`Cc1ccsc1C(=O)Nc1ccccc1-c1ccc(OC(F)(F)F)c(C(F)(F)F)c1` [Example 12]: the pest or weed control at 100 g/ha in the series on Sphaerotheca fuliginea and with Podosphaera leucotricha was 100% each time. Further, the chromatographic logP in series [1] (setting [2]) came out at 4.37.

As for `Cc1ccsc1C(=O)Nc1ccccc1-c1ccc(OC(F)(F)F)cc1` [Example 6], the pest or weed control at 100 g/ha in the series on Sphaerotheca fuliginea and in the series with Podosphaera leucotricha was 100% each time. Besides, the chromatographic logP in series [1] (setting [2]) came to 4.33. The molecule also displayed an Efficacy in % in the series on Alternaria solani of 100%.
